Experimental data: article PMC10804372, “Degradation by Design: New Cyclin K Degraders from Old CDK Inhibitors” (ACS Chemical Biology, 2024)

Tested on: Cyclin K
Experiment: Cyclin K degradation concentration-response (DC50, DMax) by Western blot
Type: cell-based, human
Conditions: 36 vs 1
Description: With the aim of comparing the degradation ability of the new analogues, we derived DC50 values by using Western blotting (Table 5). […] This approach has been previously used to improve the potency of BCL6 degraders.[33] We therefore also measured CDK12 affinity using the KINOMEscan binding assay (Table 5).[34]
(§1) HEK293T human […] kidney cells were cultured in DMEM (Gibco/Life Technologies), containing 25 mM D-glucose, 4 mM L-glutamine, and 1 mM sodium pyruvate, and supplemented with 10% (v/v) FBS and 1% nonessential amino acids (Gibco/Life Technologies). Cells were incubated at 37 °C in a humidified atmosphere with 5% CO2.
(§2) Cells were washed with PBS and lysed (20 mM HEPES pH 7.5, 10% glycerol, 0.4 M KCl, 0.4% Triton X-100, 15 mM EDTA, and 1× protease and phosphatase inhibitors). The insoluble fraction was removed by centrifugation. Protein quantification was performed using a Bradford assay and compared to a BSA calibration curve. Equal amounts of lysates were run on SDS–PAGE 4–12% Bis–Tris Protein Gels (NuPAGE, Thermo Fisher Scientific) and then transferred onto Immobilon-P PVDF Membrane (Millipore, IPVH00010) using a Mini Trans-Blot Cell (Bio-Rad, 1703930). The membranes were blocked with 5% bovine albumin serum (BSA) in Tris-buffered saline with Tween 20 (TBS-T) and incubated with primary antibodies overnight at 4 °C. The membranes were washed three times with TBS-T and incubated with HRP-conjugated secondary antibody (BioRad) for 2 h. Membranes were washed again three times with TBS-T before being developed using Pierce ECL Western Blotting Substrate (Thermo, 32106) and visualized using LI-COR. Antibodies were purchased from Cell Signaling Technology: anti-GAPDH (D4C6R) and anti-DDB1 (D4C8) or Bethyl Laboratories: anti-Cyclin K (A301-939A). The following HRP-linked secondary antibodies were used by dilution in 5% BSA/TBS-T: antirabbit IgG (BioRad, 5213–2504) and antimouse IgG (BioRad, 103005).
(§3) Unedited blots containing the marker lane are available on request. Western blots were quantified using ImageJ. Cyclin K levels were normalized using GAPDH as a loading control. DC50 values were calculated from concentration–response curves using nonlinear regression fit to a 4-parameter curve by GraphPad Prism.

SMILES	improvement in degradation as measured by DC50 versus compound 1
OCCC1CCCCN1c1cc(NCc2ccc(-c3ccccn3)cc2)n2ncc(Br)c2n1 (centres unmarked) [compound 36]	fivefold

Same assay, conditions: HEK293T, Western blot quantification, 3 biological repeats

SMILES	DMax (%)
CC[C@H](CO)Nc1nc(NCc2ccc(-c3cccc(C)n3)cc2)c2ncn(C(C)C)c2n1 [compound 12]	>95
OCCC1CCCCN1c1cc(NCc2ccc(-c3ccccn3)cc2)n2ncc(Br)c2n1 (centres unmarked) [compound 36]	>95
OCCC1CCCCN1c1cc(NCc2ccc(-c3ccco3)cc2)n2ncc(Br)c2n1 (centres unmarked) [compound 39]	>95
O=C(NCc1ccc(-c2ccccn2)cc1)c1n[nH]cc1NC(=O)c1c(Cl)cccc1Cl [compound 40]	>95
O=C(NCc1ccc(-c2ccco2)cc1)c1n[nH]cc1NC(=O)c1c(Cl)cccc1Cl [compound 42]	>95

Same assay, conditions: HEK293T, Western blot quantification, 3 biological repeats; read-out: CycK DC50

SMILES	DC50 [nM]
CC[C@H](CO)Nc1nc(NCc2ccc(-c3cccc(C)n3)cc2)c2ncn(C(C)C)c2n1 [compound 12]	106
OCCC1CCCCN1c1cc(NCc2ccc(-c3ccccn3)cc2)n2ncc(Br)c2n1 (centres unmarked) [compound 36]	10
OCCC1CCCCN1c1cc(NCc2ccc(-c3ccco3)cc2)n2ncc(Br)c2n1 (centres unmarked) [compound 39]	72
O=C(NCc1ccc(-c2ccccn2)cc1)c1n[nH]cc1NC(=O)c1c(Cl)cccc1Cl [compound 40]	21
O=C(NCc1ccc(-c2ccco2)cc1)c1n[nH]cc1NC(=O)c1c(Cl)cccc1Cl [compound 42]	168

Same assay, conditions: furan analogues vs 1 (CR8), 36, 40

SMILES	fold decrease in degradation ability versus pyridine counterpart
OCCC1CCCCN1c1cc(NCc2ccc(-c3ccco3)cc2)n2ncc(Br)c2n1 (centres unmarked) [compound 39]	4–8 fold
O=C(NCc1ccc(-c2ccco2)cc1)c1n[nH]cc1NC(=O)c1c(Cl)cccc1Cl [compound 42]	4–8 fold

Target: T1, CDK12 (Homo sapiens, UniProt Q9NYV4)
T1 construct: purchased Eurofins DiscoverX (KINOMEscan service)
Experiment: KINOMEscan binding assay (Eurofins DiscoverX)
Conditions: 36 vs 1; 37 vs 21

T1 sequence (Q9NYV4 whole entry): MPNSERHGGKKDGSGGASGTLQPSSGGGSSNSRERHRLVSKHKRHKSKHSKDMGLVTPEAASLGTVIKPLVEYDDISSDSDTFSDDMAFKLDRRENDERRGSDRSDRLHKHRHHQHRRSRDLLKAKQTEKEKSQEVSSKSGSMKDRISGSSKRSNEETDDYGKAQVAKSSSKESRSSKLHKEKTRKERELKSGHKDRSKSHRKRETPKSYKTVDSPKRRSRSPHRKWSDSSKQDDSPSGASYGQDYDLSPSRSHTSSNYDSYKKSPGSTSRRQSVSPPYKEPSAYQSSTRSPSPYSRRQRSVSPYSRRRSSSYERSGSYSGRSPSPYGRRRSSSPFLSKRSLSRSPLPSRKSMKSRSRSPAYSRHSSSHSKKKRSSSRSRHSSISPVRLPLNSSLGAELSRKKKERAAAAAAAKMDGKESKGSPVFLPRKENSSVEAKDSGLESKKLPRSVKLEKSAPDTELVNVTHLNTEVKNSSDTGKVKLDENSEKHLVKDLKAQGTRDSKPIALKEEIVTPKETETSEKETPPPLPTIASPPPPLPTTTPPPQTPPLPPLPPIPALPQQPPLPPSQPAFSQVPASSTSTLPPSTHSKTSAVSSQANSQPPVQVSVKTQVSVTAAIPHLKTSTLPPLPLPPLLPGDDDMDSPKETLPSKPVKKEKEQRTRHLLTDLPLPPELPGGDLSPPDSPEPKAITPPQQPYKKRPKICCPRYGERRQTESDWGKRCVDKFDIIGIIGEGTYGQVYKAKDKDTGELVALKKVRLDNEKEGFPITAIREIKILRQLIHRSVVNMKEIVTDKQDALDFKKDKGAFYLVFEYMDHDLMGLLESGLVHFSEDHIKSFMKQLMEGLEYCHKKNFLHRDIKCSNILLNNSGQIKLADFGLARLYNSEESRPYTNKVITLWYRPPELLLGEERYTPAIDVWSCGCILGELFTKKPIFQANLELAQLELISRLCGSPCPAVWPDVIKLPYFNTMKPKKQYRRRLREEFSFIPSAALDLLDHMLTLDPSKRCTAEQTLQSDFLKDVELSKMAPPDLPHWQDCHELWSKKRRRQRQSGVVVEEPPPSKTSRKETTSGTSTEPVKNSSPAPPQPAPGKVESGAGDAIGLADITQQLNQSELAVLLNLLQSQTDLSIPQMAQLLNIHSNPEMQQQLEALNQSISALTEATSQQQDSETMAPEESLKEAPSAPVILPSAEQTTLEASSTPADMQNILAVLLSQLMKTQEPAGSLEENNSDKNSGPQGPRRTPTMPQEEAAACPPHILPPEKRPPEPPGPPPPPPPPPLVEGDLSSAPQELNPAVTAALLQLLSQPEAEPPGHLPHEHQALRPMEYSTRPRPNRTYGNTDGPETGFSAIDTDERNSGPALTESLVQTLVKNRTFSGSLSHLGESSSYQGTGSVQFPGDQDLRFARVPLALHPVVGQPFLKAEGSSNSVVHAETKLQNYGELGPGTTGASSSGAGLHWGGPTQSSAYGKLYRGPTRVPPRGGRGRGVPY

SMILES	fold better CDK12 affinity versus CR8/seliciclib-core analogue [fold]
OCCC1CCCCN1c1cc(NCc2ccc(-c3ccccn3)cc2)n2ncc(Br)c2n1 (centres unmarked) [compound 36]	100

Same assay, conditions: 40 vs 36

SMILES	fold difference (weaker) in CDK12 binding affinity versus compound 36 [fold]
O=C(NCc1ccc(-c2ccccn2)cc1)c1n[nH]cc1NC(=O)c1c(Cl)cccc1Cl [compound 40]	250

Same assay, conditions: KINOMEscan

SMILES	Kd [nM]
CC[C@H](CO)Nc1nc(NCc2ccc(-c3cccc(C)n3)cc2)c2ncn(C(C)C)c2n1 [compound 12]	220
OCCC1CCCCN1c1cc(NCc2ccc(-c3ccccn3)cc2)n2ncc(Br)c2n1 (centres unmarked) [compound 36]	4
OCCC1CCCCN1c1cc(NCc2ccc(-c3ccco3)cc2)n2ncc(Br)c2n1 (centres unmarked) [compound 39]	17
O=C(NCc1ccc(-c2ccccn2)cc1)c1n[nH]cc1NC(=O)c1c(Cl)cccc1Cl [compound 40]	1000
O=C(NCc1ccc(-c2ccco2)cc1)c1n[nH]cc1NC(=O)c1c(Cl)cccc1Cl [compound 42]	1000
OCCC1CCCCN1c1cc(NCc2ccccc2)n2ncc(Br)c2n1 (centres unmarked) [compound 43]	10
O=C(NCc1ccccc1)c1n[nH]cc1NC(=O)c1c(Cl)cccc1Cl [compound 44]	5500

Tested on: Cyclin K
Experiment: Cyclin K levels by Western blot after single-concentration treatment
Type: cell-based, human
Conditions: HEK293T cells, 1 μM for 2 h, Western blot
Description: as §1, §2, §3

SMILES	cyclin K degradation
CC[C@H](CO)Nc1nc(NCc2ccc(-c3ccccc3)cc2)c2ncn(C(C)C)c2n1 [compound 3]	comparable to that of CR8
CC[C@H](CO)Nc1nc(NCc2ccc(-c3cccnc3)cc2)c2ncn(C(C)C)c2n1 [compound 4]	comparable to that of CR8
CC[C@H](CO)Nc1nc(NCc2ccc(-c3ccncc3)cc2)c2ncn(C(C)C)c2n1 [compound 5]	comparable to that of CR8
CC[C@H](CO)Nc1nc(NCc2ccc(-c3ccc(F)cn3)cc2)c2ncn(C(C)C)c2n1 [compound 6]	reduction in degradation activity
CC[C@H](CO)Nc1nc(NCc2ccc(-c3ccc(C)cn3)cc2)c2ncn(C(C)C)c2n1 [compound 7]	abrogated degradation further
CC[C@H](CO)Nc1nc(NCc2ccc(-c3cccc(F)n3)cc2)c2ncn(C(C)C)c2n1 [compound 11]	complete degradation
CC[C@H](CO)Nc1nc(NCc2ccc(-c3cccc(C)n3)cc2)c2ncn(C(C)C)c2n1 [compound 12]	complete degradation
CCc1ccnc(-c2ccc(CNc3nc(N[C@H](CC)CO)nc4c3ncn4C(C)C)cc2)c1 [compound 16]	able to successfully induce degradation
CC[C@H](CO)Nc1nc(NCc2ccc(-c3cc(C#N)ccn3)cc2)c2ncn(C(C)C)c2n1 [compound 17]	able to successfully induce degradation
CC[C@H](CO)Nc1nc(NCc2ccc(-c3ncccc3F)cc2)c2ncn(C(C)C)c2n1 [compound 18]	able to induce degradation
CC[C@H](CO)Nc1nc(NCc2ccc(-c3ncccc3C)cc2)c2ncn(C(C)C)c2n1 [compound 19]	reduced degradation ability compared to CR8
CC[C@H](CO)Nc1nc(NCc2ccc(C3=CCCCC3)cc2)c2ncn(C(C)C)c2n1 [compound 22]	partial degradation
CC[C@H](CO)Nc1nc(NCc2ccc(N3CCNCC3)cc2)c2ncn(C(C)C)c2n1 [compound 24]	significantly reduced degradation ability
CC[C@H](CO)Nc1nc(NCc2ccc(C3=CCCC3)cc2)c2ncn(C(C)C)c2n1 [compound 26]	complete cyclin K degradation
CC[C@H](CO)Nc1nc(NCc2ccc(C3CCCC3)cc2)c2ncn(C(C)C)c2n1 [compound 27]	only partial degradation
CC[C@H](CO)Nc1nc(NCc2ccc(-c3ccoc3)cc2)c2ncn(C(C)C)c2n1 [compound 28]	complete degradation
CC[C@H](CO)Nc1nc(NCc2ccc(C)cc2)c2ncn(C(C)C)c2n1 [compound 32]	little to no degradation
CC[C@H](CO)Nc1nc(NCc2ccc(Br)cc2)c2ncn(C(C)C)c2n1 [compound 33]	little to no degradation
C=Cc1ccc(CNc2nc(N[C@H](CC)CO)nc3c2ncn3C(C)C)cc1 [compound 34]	little to no degradation
CCc1ccc(CNc2nc(N[C@H](CC)CO)nc3c2ncn3C(C)C)cc1 [compound 35]	little to no degradation

Same assay, conditions: HEK293T cells, 1 μM for 2 h, quantified from Western blots, mean ± SD, three independent experiments

SMILES	Remaining Cyclin K (%)
CC[C@H](CO)Nc1nc(NCc2ccc(-c3ccccc3)cc2)c2ncn(C(C)C)c2n1 [compound 3]	8 ± 7
CC[C@H](CO)Nc1nc(NCc2ccc(-c3cccnc3)cc2)c2ncn(C(C)C)c2n1 [compound 4]	6 ± 4
CC[C@H](CO)Nc1nc(NCc2ccc(-c3ccncc3)cc2)c2ncn(C(C)C)c2n1 [compound 5]	9 ± 6
CC[C@H](CO)Nc1nc(NCc2ccc(-c3ccc(F)cn3)cc2)c2ncn(C(C)C)c2n1 [compound 6]	42 ± 8
CC[C@H](CO)Nc1nc(NCc2ccc(-c3ccc(C)cn3)cc2)c2ncn(C(C)C)c2n1 [compound 7]	93 ± 6
CC[C@H](CO)Nc1nc(NCc2ccc(-c3ccc(CC(C)C)cc3)cc2)c2ncn(C(C)C)c2n1 [compound 9]	79 ± 22
CC[C@H](CO)Nc1nc(NCc2ccc(-c3ccc(C(=O)NC45CC6CC(CC(C6)C4)C5)cn3)cc2)c2ncn(C(C)C)c2n1 [compound 10]	94 ± 8
CC[C@H](CO)Nc1nc(NCc2ccc(-c3cccc(F)n3)cc2)c2ncn(C(C)C)c2n1 [compound 11]	2 ± 3
CC[C@H](CO)Nc1nc(NCc2ccc(-c3cccc(C)n3)cc2)c2ncn(C(C)C)c2n1 [compound 12]	4 ± 4
CC[C@H](CO)Nc1nc(NCc2ccc(-c3cc(F)ccn3)cc2)c2ncn(C(C)C)c2n1 [compound 13]	3 ± 2
CC[C@H](CO)Nc1nc(NCc2ccc(-c3cc(C)ccn3)cc2)c2ncn(C(C)C)c2n1 [compound 14]	1 ± 0
CCc1ccnc(-c2ccc(CNc3nc(N[C@H](CC)CO)nc4c3ncn4C(C)C)cc2)c1 [compound 16]	6 ± 4
CC[C@H](CO)Nc1nc(NCc2ccc(-c3cc(C#N)ccn3)cc2)c2ncn(C(C)C)c2n1 [compound 17]	2 ± 2
CC[C@H](CO)Nc1nc(NCc2ccc(-c3ncccc3F)cc2)c2ncn(C(C)C)c2n1 [compound 18]	17 ± 13
CC[C@H](CO)Nc1nc(NCc2ccc(-c3ncccc3C)cc2)c2ncn(C(C)C)c2n1 [compound 19]	37 ± 16
CC[C@H](CO)Nc1nc(NCc2ccc(C3=CCCCC3)cc2)c2ncn(C(C)C)c2n1 [compound 22]	22 ± 5
CC[C@H](CO)Nc1nc(NCc2ccc(N3CCNCC3)cc2)c2ncn(C(C)C)c2n1 [compound 24]	86 ± 20
CC[C@H](CO)Nc1nc(NCc2ccc(C3=CCCC3)cc2)c2ncn(C(C)C)c2n1 [compound 26]	5 ± 4
CC[C@H](CO)Nc1nc(NCc2ccc(C3CCCC3)cc2)c2ncn(C(C)C)c2n1 [compound 27]	31 ± 16
CC[C@H](CO)Nc1nc(NCc2ccc(-c3ccoc3)cc2)c2ncn(C(C)C)c2n1 [compound 28]	2 ± 2
CC[C@H](CO)Nc1nc(NCc2ccc(C)cc2)c2ncn(C(C)C)c2n1 [compound 32]	89 ± 8
CC[C@H](CO)Nc1nc(NCc2ccc(Br)cc2)c2ncn(C(C)C)c2n1 [compound 33]	73 ± 29
C=Cc1ccc(CNc2nc(N[C@H](CC)CO)nc3c2ncn3C(C)C)cc1 [compound 34]	63 ± 22
CCc1ccc(CNc2nc(N[C@H](CC)CO)nc3c2ncn3C(C)C)cc1 [compound 35]	90 ± 14
OCCC1CCCCN1c1cc(NCc2ccc(-c3ccccn3)cc2)n2ncc(Br)c2n1 (centres unmarked) [compound 36]	2 ± 1
Cc1ccnc(-c2ccc(CNc3cc(N4CCCCC4CCO)nc4c(Br)cnn34)cc2)c1 (centres unmarked) [compound 38]	3 ± 4
OCCC1CCCCN1c1cc(NCc2ccc(-c3ccco3)cc2)n2ncc(Br)c2n1 (centres unmarked) [compound 39]	4 ± 4
O=C(NCc1ccc(-c2ccccn2)cc1)c1n[nH]cc1NC(=O)c1c(Cl)cccc1Cl [compound 40]	1 ± 1
O=C(NCc1ccc(-c2ccco2)cc1)c1n[nH]cc1NC(=O)c1c(Cl)cccc1Cl [compound 42]	20 ± 14
